The record followed here is patent US20090111778A1, “2-Keto-Oxazoles as Modulators of Fatty Acid Amide Hydrolase” (priority 2005, published 2009).

The target of one test is T1, rat FAAH (Rattus norvegicus, UniProt P97612).
T1 construct: expressed in transfected cells
T1 sequence (P97612 1-579): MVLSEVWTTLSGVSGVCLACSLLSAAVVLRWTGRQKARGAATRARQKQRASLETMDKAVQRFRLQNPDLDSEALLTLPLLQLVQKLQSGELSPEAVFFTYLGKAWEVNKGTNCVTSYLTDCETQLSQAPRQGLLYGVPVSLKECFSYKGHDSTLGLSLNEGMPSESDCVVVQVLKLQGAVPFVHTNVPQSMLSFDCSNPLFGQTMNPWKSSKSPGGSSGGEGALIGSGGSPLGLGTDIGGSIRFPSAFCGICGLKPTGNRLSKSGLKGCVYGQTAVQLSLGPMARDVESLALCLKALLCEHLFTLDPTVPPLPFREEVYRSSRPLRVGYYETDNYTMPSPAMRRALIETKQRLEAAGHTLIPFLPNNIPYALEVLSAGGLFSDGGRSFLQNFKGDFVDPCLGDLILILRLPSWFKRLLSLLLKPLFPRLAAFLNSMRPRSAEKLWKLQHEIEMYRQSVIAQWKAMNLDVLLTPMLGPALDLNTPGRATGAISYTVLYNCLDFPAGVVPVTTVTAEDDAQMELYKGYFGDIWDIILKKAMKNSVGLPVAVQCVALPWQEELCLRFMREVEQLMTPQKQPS
The experiment in a line: Assay Method 2: FAAH assay, hydrolysis of 3H-anandamide by homogenate of SK-N-MC cells transfected with rat FAAH. The test is classed as biochemical. The conditions noted are these: T84 or transfected SK-N-MC cell homogenate, 3H-AEA tracer 80 nM, rt 1 h, pH 9. The gist of the method:
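Rat FAAH activity from homogenate of G418-selected, electroporated SK-N-MC clones was measured as release of radiolabelled ethanolamine from 3H-anandamide. After 1 h at rt, charcoal filtration retained substrate, and scintillation counting of the flow-through gave the read-out.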

A further test concerns the target T2, human FAAH (Homo sapiens, UniProt O00519).
T2 construct: expressed in transfected cells
T2 sequence (O00519 1-579): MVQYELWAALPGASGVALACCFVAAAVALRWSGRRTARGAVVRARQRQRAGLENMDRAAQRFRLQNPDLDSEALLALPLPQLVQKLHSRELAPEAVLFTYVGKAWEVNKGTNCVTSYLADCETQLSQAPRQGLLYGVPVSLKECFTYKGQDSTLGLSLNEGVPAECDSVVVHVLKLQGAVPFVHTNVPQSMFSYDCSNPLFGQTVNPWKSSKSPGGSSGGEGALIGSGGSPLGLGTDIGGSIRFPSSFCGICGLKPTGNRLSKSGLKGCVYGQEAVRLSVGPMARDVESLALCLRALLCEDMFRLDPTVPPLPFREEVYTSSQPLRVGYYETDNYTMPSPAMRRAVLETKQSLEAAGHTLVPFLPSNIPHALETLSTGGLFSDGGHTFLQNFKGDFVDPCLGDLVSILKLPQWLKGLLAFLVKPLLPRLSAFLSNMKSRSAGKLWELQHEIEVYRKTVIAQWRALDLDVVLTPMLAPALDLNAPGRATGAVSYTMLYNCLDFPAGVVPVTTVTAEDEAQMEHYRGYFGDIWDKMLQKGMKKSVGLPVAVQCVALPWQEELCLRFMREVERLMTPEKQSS
Nature of the test: Assay Method 1: FAAH assay, hydrolysis of 3H-anandamide by homogenate of SK-N-MC cells transfected with human FAAH. The test is classed as biochemical. In short, it runs like this: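 Homogenate of SK-N-MC cells stably expressing human FAAH (G418-selected clones) incubated with compound and 80 nM [1-3H-ethanolamine]anandamide for 1 h at rt. Released 3H-ethanolamine separated from substrate by activated-charcoal filtration, then counted by scintillation.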

The mark [1] stands for this setting: human FAAH, T84 or transfected SK-N-MC cell homogenate, 3H-AEA tracer 80 nM, rt 1 h, pH 9, read-out: Assay 1 IC50.

Where a name gives a salt, the structure may show the parent alone. Read-outs that look alike come from different tables or passages of the source.

For the compound `O=C(CCCC1CCN(C(=O)CCC2CCCCC2)CC1)c1ncco1` [Example 50, 4-[1-(3-Cyclohexyl-propionyl)-piperidin-4-yl]-1-oxazol-2-yl-butan-1-one], the figures for the IC50 against rat FAAH and on human FAAH (setting [1]) were 10 nM and 2 nM, respectively.
`CC(C)(C)Oc1ccc(CN2CCC(CCCC(=O)c3ncco3)CC2)cc1` [Example 24, 4-[1-(4-tert-Butoxy-benzyl)-piperidin-4-yl]-1-oxazol-2-yl-butan-1-one]: the IC50 (in general, the concentration needed to halve the response being measured) on rat FAAH amounted to 18 nM; at human FAAH (setting [1]) it was 32 nM.
The like results for `O=C(CCCC1CCN(Cc2ccc(F)cc2)CC1)c1ncco1` [Example 7, 4-[1-(4-Fluoro-benzyl)-piperidin-4-yl]-1-oxazol-2-yl-butan-1-one] were, in that order, 1000 nM and 850 nM.
Regarding `O=C(CCCC1CCN(C(=O)CCc2ccc(Oc3ccccc3)cc2)CC1)c1ncco1` [Example 37, 1-Oxazol-2-yl-4-{1-[3-(4-phenoxy-phenyl)-propionyl]-piperidin-4-yl}-butan-1-one], the IC50 came to 18 nM at rat FAAH and 22 nM on human FAAH (setting [1]).
The like results for `COc1ccc(CN2CCC(CCCC(=O)c3ncco3)CC2)cn1` [Example 74, 4-[1-(6-Methoxy-pyridin-3-ylmethyl)-piperidin-4-yl]-1-oxazol-2-yl-butan-1-one] were, in that order, 5000 nM and 1300 nM.
In the case of `CC(C)S(=O)(=O)N1CCC(CCCC(=O)c2ncco2)CC1` [Example 56, 1-Oxazol-2-yl-4-[1-(propane-2-sulfonyl)-piperidin-4-yl]-butan-1-one], the IC50 against rat FAAH turned out to be 3350 nM; on human FAAH, 142 nM.
Regarding `O=C(CCCC1CCN(Cc2cccc(OC3CCCCC3)c2)CC1)c1ncco1` [Example 136, 4-[1-(3-Cyclohexyloxy-benzyl)-piperidin-4-yl]-1-oxazol-2-yl-butan-1-one], the figures for the IC50 at rat FAAH and at human FAAH (setting [1]) were 2 nM and 1 nM, respectively.
The like results for `O=C(CCCC1CCN(Cc2ccc(Cl)c(C(F)(F)F)c2)CC1)c1ncco1` [Example 133, 4-[1-(4-Chloro-3-trifluoromethyl-benzyl)-piperidin-4-yl]-1-oxazol-2-yl-butan-1-one] were, in that order, 2000 nM and 460 nM.
Take `Cc1ccc(Oc2ccc(CN3CCC(CCCC(=O)c4ncco4)CC3)cn2)cc1` [Example 96, 1-Oxazol-2-yl-4-[1-(6-p-tolyloxy-pyridin-3-ylmethyl)-piperidin-4-yl]-butan-1-one]: the IC50 came out at 132 nM on rat FAAH and 125 nM on human FAAH (setting [1]).
The like results for `O=C(CCCC1CCN(S(=O)(=O)c2ccc(F)cc2)CC1)c1ncco1` [Example 55, 4-[1-(4-Fluoro-benzenesulfonyl)-piperidin-4-yl]-1-oxazol-2-yl-butan-1-one] were, in that order, 95 nM and 905 nM.
Taken in the same sequence, the figures for `Cc1ccc(S(=O)(=O)N2CCC(CCCC(=O)c3ncc(-c4cccc(C(=O)O)n4)o3)CC2)cc1` [Example 151, 6-(2-{4-[1-(Toluene-4-sulfonyl)-piperidin-4-yl]-butyryl}-oxazol-5-yl)-pyridine-2-carboxylic acid trifluoroacetic acid salt] were 25 nM and 21 nM.
In the case of `O=C(CCCC1CCN(Cc2ccnc3ccccc23)CC1)c1ncco1` [Example 93, 1-Oxazol-2-yl-4-(1-quinolin-4-ylmethyl-piperidin-4-yl)-butan-1-one], the IC50 against rat FAAH stood at 923 nM; at human FAAH (setting [1]), 70 nM.
Taken in the same sequence, the figures for `Cc1cccc(CN2CCC(CCCC(=O)c3ncco3)CC2)c1C` [Example 94, 4-[1-(2,3-Dimethyl-benzyl)-piperidin-4-yl]-1-oxazol-2-yl-butan-1-one] were 2100 nM and 400 nM.
Taken in the same sequence, the figures for `Cc1cccc(CC(=O)N2CCC(CCCC(=O)c3ncco3)CC2)c1` [Example 39, 1-Oxazol-2-yl-4-[1-(2-m-tolyl-acetyl)-piperidin-4-yl]-butan-1-one] were 463 nM and 834 nM.
